Laboratory results reported in ChEMBL document CHEMBL1201862, “PubChem BioAssay data set” (2004).
Activity calls are given as the source filed them.

What was measured:
[1] = target: Type-1 angiotensin II receptor (Homo sapiens, UniProt P30556); assay: AT1 receptor agonists, dose response, selectivity assay for APJ receptor agonist project, cell-based, uHTS hits (AID 488865); format: functional;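 also: beta-arrestin recruitment to AT1 measured by enzyme fragment complementation luminescence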
[2] = target: T1, Sphingosine 1-phosphate receptor 4 (Homo sapiens, UniProt O95977); assay: Fluorescence dose response cell-based high throughput screening assay for agonists of the Sphingosine 1-Phosphate Receptor 4 (S1P4). [Related pubchem assays: 1509 (Primary screen.), 1523 (Confirmation screen in triplicates.)]; format: functional
T1 sequence (O95977 whole entry): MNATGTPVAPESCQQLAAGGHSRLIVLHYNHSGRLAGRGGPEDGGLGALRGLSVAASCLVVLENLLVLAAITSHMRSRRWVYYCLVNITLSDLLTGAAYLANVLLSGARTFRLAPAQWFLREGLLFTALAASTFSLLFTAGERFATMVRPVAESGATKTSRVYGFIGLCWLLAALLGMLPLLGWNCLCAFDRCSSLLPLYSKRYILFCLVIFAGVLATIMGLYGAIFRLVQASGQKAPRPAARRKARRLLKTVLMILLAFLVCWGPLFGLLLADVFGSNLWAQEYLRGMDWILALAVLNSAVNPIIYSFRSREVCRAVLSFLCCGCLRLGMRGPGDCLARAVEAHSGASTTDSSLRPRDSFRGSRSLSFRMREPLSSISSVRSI

[3] = target: Sphingosine 1-phosphate receptor 1 (Homo sapiens, UniProt P21453); assay: Fluorescence-based counterscreen assay for S1P4 agonists: Cell-based dose response high throughput screening assay to identify agonists of the Sphingosine 1-Phosphate Receptor 1 (S1P1). [Related pubchem assays (depositor defined):AID1509, AID1523, AID1801, AID463107, AID463118, AID463119, AID463122, AID463123, AID463129, AID463225, AID504400, AID504460]; format: functional
[4] = target: T2, Cannabinoid receptor 2 (Homo sapiens, UniProt P34972); assay: SAR analysis of antagonists of the Cannabinoid Receptor 2 using an Image-Based Assay - Set 3. [Related pubchem assays (depositor defined):AID2013, AID2026]; format: functional
[5] = target: T3, Cannabinoid receptor 1 (Homo sapiens, UniProt P21554); assay: SAR analysis of agonists of the Cannabinoid Receptor 1 using an Image-Based Assay - Set 4. [Related pubchem assays (depositor defined):AID2013, AID2026]; format: functional
[6] = target: T3, Cannabinoid receptor 1; assay: SAR analysis of antagonists of the Cannabinoid Receptor 1 using an Image-Based Assay - Set 4. [Related pubchem assays (depositor defined):AID2013, AID2026]; format: functional
[7] = target: T2, Cannabinoid receptor 2; assay: SAR analysis of agonists of the Cannabinoid Receptor 2 using an Image-Based Assay - Set 3. [Related pubchem assays (depositor defined):AID2013, AID2026]; format: functional
[8] = target: T4, G-protein coupled receptor 35 (Homo sapiens, UniProt Q9HC97); assay: SAR analysis of Antagonists of the GPR35 Receptor using an Image-Based Assay - Set 6. [Related pubchem assays (depositor defined):AID2013, AID2026]; format: functional
[9] = target: T4, G-protein coupled receptor 35; assay: SAR analysis of Agonists of the GPR35 Receptor using an Image-Based Assay - Set 4. [Related pubchem assays (depositor defined):AID2013, AID2026]; format: functional
[10] = target: G-protein coupled receptor 55 (Homo sapiens, UniProt Q9Y2T6); assay: SAR Analysis of Selective Antagonists of GPR55 using an Image-Based Assay - Set 4. [Related pubchem assays (depositor defined):AID2013, AID2026]; format: functional;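 also: antagonism of response to 5 µM lysophosphatidylinositol agonist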
[11] = Luminescence Cell-Based Dose Response HTS to Identify Activators of Luciferase Translation or Activity in H4-C Neuroglioblastoma Cells. [Related pubchem assays: 1829 (Project Summary), 1814 (Primary HTS)]; format: functional
[12] = Luminescence Cell-Based Dose Retest to Confirm Activators of 5'UTR Stem-Loop Driven Alpha-Synuclein mRNA Translation in H4 Neuroglioblastoma Cells. [Related pubchem assays (depositor defined):AID1813, AID1829]; format: functional
[13] = Luminescence Cell-Based Dose Response HTS to Identify Activators of 5'UTR Stem-Loop Driven Prion Protein mRNA Translation in H4-C Neuroglioblastoma Cells. [Related pubchem assays: 1829 (Project Summary), 1814 (Primary HTS)]; format: functional
[14] = Luminescence Cell-Based Dose Confirmation HTS to Identify Inhibitors of 5'UTR Stem-Loop Driven Alpha-Synuclein mRNA Translation in H4 Neuroglioblastoma Cells. [Related pubchem assays: 1827 (Project Summary), 1813 (Primary HTS)]; format: functional
[15] = inhibitors of firefly luciferase expression or activity, dose response, H4 neuroglioma cells, luminescence (AID 1990); format: functional, cell-based
[16] = inhibitors of SNCA 5'UTR-driven reporter translation, confirmation, H4 neuroglioma cells, luminescence (AID 1988); format: functional, cell-based
[17] = Luminescence Cell-Based Dose Response HTS to Identify Inhibitors of Luciferase Translation or Activity in H4-C Neuroglioblastoma Cells. [Related pubchem assays: 1813 (Primary HTS), 1827 (Project Summary)]; format: functional
[18] = Luminescence Cell-Based Dose HTS Response to Identify Inhibitors of 5'UTR Stem-Loop Driven Prion Protein mRNA Translation in H4-C Neuroglioblastoma Cells. [Related pubchem assays (depositor defined):AID1814, AID1827]; format: functional
[19] = Luminescence Cell-Based Dose Response HTS to Identify Inhibitors of 5'UTR Stem-Loop Driven Prion Protein mRNA Translation in H4 Neuroglioblastoma Cells. [Related pubchem assays: 1827 (Project Summary), 1813 (Primary HTS)]; format: functional

T4 sequence (Q9HC97 whole entry): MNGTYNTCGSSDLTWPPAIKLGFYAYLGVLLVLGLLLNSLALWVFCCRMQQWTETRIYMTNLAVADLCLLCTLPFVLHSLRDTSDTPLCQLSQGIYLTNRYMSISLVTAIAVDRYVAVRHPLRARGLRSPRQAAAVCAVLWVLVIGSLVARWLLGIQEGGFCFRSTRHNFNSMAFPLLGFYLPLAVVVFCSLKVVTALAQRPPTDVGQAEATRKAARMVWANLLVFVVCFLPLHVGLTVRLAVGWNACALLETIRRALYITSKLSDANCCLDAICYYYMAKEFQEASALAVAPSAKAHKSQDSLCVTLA
T2 sequence (P34972 whole entry): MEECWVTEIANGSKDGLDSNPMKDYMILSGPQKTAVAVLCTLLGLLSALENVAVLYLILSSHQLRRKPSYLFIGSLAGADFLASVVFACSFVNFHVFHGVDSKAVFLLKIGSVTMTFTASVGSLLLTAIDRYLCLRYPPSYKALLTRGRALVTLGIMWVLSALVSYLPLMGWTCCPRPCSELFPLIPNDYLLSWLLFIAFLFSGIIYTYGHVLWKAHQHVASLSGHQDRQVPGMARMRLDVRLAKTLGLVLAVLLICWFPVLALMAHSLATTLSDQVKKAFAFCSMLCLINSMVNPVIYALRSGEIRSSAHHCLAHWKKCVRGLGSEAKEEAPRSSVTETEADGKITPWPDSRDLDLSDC
T3 sequence (P21554 whole entry): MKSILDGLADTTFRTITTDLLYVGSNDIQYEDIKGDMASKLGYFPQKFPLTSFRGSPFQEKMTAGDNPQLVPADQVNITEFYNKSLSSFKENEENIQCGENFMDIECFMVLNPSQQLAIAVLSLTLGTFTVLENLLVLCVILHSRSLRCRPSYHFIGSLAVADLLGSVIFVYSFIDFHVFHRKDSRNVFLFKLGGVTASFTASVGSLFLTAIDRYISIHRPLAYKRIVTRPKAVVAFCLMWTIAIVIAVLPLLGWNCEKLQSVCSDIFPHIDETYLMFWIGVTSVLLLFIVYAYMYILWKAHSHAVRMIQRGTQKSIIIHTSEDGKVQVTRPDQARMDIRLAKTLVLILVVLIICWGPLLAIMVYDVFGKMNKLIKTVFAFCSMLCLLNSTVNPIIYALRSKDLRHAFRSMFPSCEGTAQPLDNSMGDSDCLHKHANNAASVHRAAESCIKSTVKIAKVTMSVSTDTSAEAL
Sequence of Type-1 angiotensin II receptor (P30556 whole entry, the tested form may be a part): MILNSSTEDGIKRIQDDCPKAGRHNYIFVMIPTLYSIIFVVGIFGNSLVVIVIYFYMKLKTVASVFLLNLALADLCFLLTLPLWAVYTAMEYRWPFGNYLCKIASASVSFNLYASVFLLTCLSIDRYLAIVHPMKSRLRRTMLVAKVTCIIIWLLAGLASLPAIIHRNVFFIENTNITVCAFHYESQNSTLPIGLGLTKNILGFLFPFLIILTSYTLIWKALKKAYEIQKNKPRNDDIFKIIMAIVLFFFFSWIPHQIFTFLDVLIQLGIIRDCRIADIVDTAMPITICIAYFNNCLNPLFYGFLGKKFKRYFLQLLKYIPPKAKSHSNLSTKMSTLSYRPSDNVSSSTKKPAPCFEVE
Sequence of G-protein coupled receptor 55 (Q9Y2T6 whole entry): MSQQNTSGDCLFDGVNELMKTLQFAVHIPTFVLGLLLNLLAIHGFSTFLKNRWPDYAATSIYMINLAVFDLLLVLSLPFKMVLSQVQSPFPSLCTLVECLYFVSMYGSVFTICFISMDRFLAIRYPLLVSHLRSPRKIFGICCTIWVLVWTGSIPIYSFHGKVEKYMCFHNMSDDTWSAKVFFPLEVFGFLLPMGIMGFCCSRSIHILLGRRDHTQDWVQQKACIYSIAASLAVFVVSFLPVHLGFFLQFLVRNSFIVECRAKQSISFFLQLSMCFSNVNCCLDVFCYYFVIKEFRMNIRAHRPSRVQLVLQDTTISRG
Sequence of Sphingosine 1-phosphate receptor 1 (P21453 whole entry): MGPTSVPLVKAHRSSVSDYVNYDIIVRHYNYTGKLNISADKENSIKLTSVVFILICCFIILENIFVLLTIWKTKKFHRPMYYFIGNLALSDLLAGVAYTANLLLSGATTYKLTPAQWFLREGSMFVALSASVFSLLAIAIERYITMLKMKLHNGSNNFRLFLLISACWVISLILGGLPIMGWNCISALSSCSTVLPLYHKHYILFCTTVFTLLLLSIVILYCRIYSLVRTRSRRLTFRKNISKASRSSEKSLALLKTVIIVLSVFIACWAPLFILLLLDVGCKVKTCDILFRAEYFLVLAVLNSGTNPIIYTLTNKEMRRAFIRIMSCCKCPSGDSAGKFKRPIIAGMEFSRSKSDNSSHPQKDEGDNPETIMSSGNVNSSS

SMILES: CCN(CC)CCNC(=O)c1ccc(NC(=O)c2cc(-c3ccco3)nc3ccccc23)cc1
- EC50 [1]: > 100 µM (inactive)

SMILES: Clc1ccc(C2=NN(c3ccccc3)C(c3ccco3)C2)cc1 (centres undefined)
- EC50 [2]: > 16.6 µM (not active)
- EC50 [3]: > 5.53 µM (inactive)

SMILES: CCN(CC)S(=O)(=O)c1ccc(NC(=O)c2cc(-c3cccs3)nc3ccccc23)cc1
- IC50 [4]: > 32 µM (inactive)
- EC50 [5]: > 32 µM (inactive)
- IC50 [6]: 0.427 µM (active)
- EC50 [7]: > 32 µM (inactive)
- IC50 [8]: > 32 µM (inactive)
- EC50 [9]: > 32 µM (inactive)
- IC50 [10]: > 32 µM (inactive)

SMILES: COc1ccc(N(CC(=O)Nc2cc(Cl)ccc2OC)S(=O)(=O)c2c(C)noc2C)cc1
- EC50 [11]: 4.39 µM (inconclusive)
- EC50 [12]: 21.5 µM (inconclusive)
- EC50 [13]: 3.56 µM (inconclusive)
- EC50 [14]: 21.5 µM (active)
- EC50 [15]: > 120 µM (not active)
- EC50 [16]: 5.82 µM (active)
- EC50 [17]: 4.39 µM (active)
- EC50 [18]: 3.56 µM (active)
- EC50 [19]: 106 µM (active)
